The values below come from patent US7811760B2, “Vector and method for detecting the change in transcription amount” (priority 2006, dated 2010).

The experiment concerns the target T1, aryl hydrocarbon receptor (Rattus norvegicus, UniProt P41738, Q794H).
T1 construct: The SD-line rat AhR gene-coding region was amplified from the reverse-transcribed sample by means of PCR; V5-His (C-terminal tag of vector pcDNA4/V5-His B); expressed in transfected cells; host or cells: mouse neuroblastoma Neuro2a, transient transfection with LIPOFECTAMINE 2000
T1 sequence (P41738 10-853 Q794H): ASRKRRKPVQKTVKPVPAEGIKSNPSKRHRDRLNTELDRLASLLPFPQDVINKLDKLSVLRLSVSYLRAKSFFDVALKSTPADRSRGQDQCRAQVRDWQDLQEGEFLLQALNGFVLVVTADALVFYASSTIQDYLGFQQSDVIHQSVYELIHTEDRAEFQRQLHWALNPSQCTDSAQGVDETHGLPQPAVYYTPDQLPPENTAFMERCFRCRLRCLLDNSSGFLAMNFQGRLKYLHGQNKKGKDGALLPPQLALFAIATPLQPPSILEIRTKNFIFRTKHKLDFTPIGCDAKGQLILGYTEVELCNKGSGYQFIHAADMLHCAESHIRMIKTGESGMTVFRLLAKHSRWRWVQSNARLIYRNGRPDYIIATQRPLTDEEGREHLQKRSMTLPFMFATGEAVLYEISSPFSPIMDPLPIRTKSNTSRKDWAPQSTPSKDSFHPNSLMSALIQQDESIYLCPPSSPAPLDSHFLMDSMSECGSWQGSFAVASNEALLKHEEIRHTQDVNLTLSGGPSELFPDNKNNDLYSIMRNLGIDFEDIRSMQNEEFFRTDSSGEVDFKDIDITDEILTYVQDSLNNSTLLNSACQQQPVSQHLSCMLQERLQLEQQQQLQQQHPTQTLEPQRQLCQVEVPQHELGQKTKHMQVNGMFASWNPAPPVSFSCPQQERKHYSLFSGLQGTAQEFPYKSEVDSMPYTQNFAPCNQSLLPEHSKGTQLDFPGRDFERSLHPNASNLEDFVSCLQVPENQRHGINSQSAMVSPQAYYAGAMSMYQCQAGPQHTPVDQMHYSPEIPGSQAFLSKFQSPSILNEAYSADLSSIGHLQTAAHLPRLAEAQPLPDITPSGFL
In words: Reporter gene assay in Neuro2a with pTHE100/Luc, pTHE100×3/Luc and pTHE100×5/Luc (tandem copies of SEQ ID No: 3). It counts as cell-based, SD-line rat. From the text:
The terminal of the “region of SEQ ID No: 3 amplified by PCR in Example 6” was phosphorylated with 5′-polynucleotide kinase (Takara Bio Inc.), and then, the regions of SEQ ID No: 3 were ligated in tandem with each other by using a ligation kit (Toyobo). The ligated DNA fragment was digested with restriction enzymes KpnI and NheI, and subjected to agarose gel electrophoresis. DNA fragment consisting of three copies of the regions of SEQ ID No: 3 linked in tandem and DNA fragment consisting of five copies of the regions of SEQ ID No: 3 linked in tandem were excised from the gel based on their molecular weight, and purified with a QIAQUICK Gel Extraction Kit. These DNA fragments were digested with KpnI and NheI, and incorporated into a vector pTHE100/Luc containing no region of SEQ ID No: 3, to prepare a recombinant vector pTHE100×3/Luc containing three tandem copies of the regions of SEQ ID No: 3, and a recombinant vector pTHE100×5/Luc containing five tandem copies of the regions of SEQ ID No: 3 (FIG. 7A). pTH100/Luc, pTHE100×3/Luc, and pTHE100×5/Luc were introduced into Neuro2a by a method similar to that in Example 3. The obtained cell was exposed to 10 nM TCDD, and then, the change in the expression amount of the reporter gene was examined (FIG. 7B).
Further, the transcriptional response to the TCDD concentration and the transcriptional response to dioxin congeners were evaluated by using the pTHE100×3/Luc. The transcriptional response to the TCDD concentration was determined by a method similar to that in Example 3, specifically, by incorporating the vector pTHE100×3/Luc into Neuro2a, exposing the obtained cell to 1 to 10,000 μM of TCDD, and measuring the change in the expression amount of the reporter gene. […] On the other hand, the transcriptional response to dioxin congeners was determined by a method similar to that in Example 3, specifically, by incorporating the vector pTHE100×3/Luc into Neuro2a, exposing the obtained cell to eight kinds of dioxin congeners including TCDD, and measuring the activity of these congeners on transcriptional regulation. […]

As for `Clc1cc2c(cc1Cl)Oc1cc(Cl)c(Cl)cc1O2` [TCDD, 2,3,7,8-tetrachlorodibenzo-p-dioxine], where the note is “10 nM TCDD, pTH100/Luc, pTHE100×5/Luc”, the “increase in the activity of the test substance on transcriptional regulation, by number of copies of SEQ ID No: 3” value is recorded as “highest with the vector pTHE100×3/Luc”. Also, the “influence of dioxin congeners on transcriptional regulation” value (eight kinds of dioxin congeners tested) is “exerted influence on transcriptional regulation”. Further, for the setting “exposure 1 to 10,000 μM of TCDD (so in the source)”, the “expression amount of the reporter gene versus TCDD concentration” value was “increased statistically significantly with the increase in TCDD concentration up to 10 μM”.
